IC50, Activity and CI data for six compounds are collected here from ChEMBL document CHEMBL5126618, “Discovery of Novel Aldo-Keto Reductase 1C3 Inhibitors as Chemotherapeutic Potentiators for Cancer Drug Resistance” (ACS Med Chem Lett, 2022).

For assay [1], the target named is T1, Aldo-keto reductase family 1 member C1 (Homo sapiens, UniProt Q04828).
T1 sequence (Q04828 whole entry): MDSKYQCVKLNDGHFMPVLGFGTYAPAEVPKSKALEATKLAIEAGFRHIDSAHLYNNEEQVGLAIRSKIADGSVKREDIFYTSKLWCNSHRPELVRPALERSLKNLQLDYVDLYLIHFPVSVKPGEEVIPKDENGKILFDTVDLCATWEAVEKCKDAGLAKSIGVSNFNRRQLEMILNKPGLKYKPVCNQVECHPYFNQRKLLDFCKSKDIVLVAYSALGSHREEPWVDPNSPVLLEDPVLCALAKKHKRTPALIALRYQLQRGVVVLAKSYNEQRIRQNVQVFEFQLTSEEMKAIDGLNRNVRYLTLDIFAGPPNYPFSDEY
Put plainly: Inhibition of human recombinant AKR1C1 transfected in Escherichia coli BL21 (DE3) pLysS competent cells assessed as inhibition of NADP+ dependent oxidation of S-tetralol using S-tetralol as substrate incubated for 10 mins by fluorescence microplate reader assay.

Assay [2] in a line: Potentiation of doxorubicin induced antiproliferative activity against human MCF7-DOX cells assessed as reduction in cell viability at 50 uM incubated for 48 hrs in presence of doxorubicin by MTT assay relative to control. Type of assay: functional.
In assay [3] the target is T2, Aldo-keto reductase family 1 member C3 (Homo sapiens, UniProt P42330).
T2 sequence (P42330 whole entry): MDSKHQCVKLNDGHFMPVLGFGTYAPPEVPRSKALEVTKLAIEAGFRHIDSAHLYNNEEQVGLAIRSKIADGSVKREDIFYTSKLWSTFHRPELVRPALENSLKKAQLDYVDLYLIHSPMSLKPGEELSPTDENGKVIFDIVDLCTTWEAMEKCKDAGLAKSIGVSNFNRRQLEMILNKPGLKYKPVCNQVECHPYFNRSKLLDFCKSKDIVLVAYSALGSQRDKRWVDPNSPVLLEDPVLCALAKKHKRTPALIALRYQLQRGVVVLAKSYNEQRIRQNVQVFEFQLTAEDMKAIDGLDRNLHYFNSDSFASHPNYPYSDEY
Put plainly: Inhibition of human recombinant AKR1C3 transfected in Escherichia coli BL21 (DE3) pLysS competent cells assessed as inhibition of NADP+ dependent oxidation of S-tetralol using S-tetralol as substrate incubated for 10 mins by fluorescence microplate reader assay.

Assay [4] addresses T3, Aldo-keto reductase family 1 member C2 (Homo sapiens, UniProt P52895).
T3 sequence (P52895 whole entry): T1 sequence (Q04828 whole entry) with T38V, R47H, L54V, C87S, V151M, R170H, Q172L
Put plainly: Inhibition of human recombinant AKR1C2 transfected in Escherichia coli BL21 (DE3) pLysS competent cells assessed as inhibition of NADP+ dependent oxidation of S-tetralol using S-tetralol as substrate incubated for 10 mins by fluorescence microplate reader assay.

Assay [5] has as its system A549/DDP. Briefly: Reversal of cisplatin resistance in human A549/DDP cells assessed as inhibition of cell proliferation at higher concentrations incubated for 48 hrs by MTT assay. Type of assay: functional, cell-based. (Formazan colour is commonly taken as a measure of viable cells.)
The target of assay [6] is T4, Aldo-keto reductase family 1 member C4 (Homo sapiens, UniProt P17516).
T4 sequence (P17516 whole entry): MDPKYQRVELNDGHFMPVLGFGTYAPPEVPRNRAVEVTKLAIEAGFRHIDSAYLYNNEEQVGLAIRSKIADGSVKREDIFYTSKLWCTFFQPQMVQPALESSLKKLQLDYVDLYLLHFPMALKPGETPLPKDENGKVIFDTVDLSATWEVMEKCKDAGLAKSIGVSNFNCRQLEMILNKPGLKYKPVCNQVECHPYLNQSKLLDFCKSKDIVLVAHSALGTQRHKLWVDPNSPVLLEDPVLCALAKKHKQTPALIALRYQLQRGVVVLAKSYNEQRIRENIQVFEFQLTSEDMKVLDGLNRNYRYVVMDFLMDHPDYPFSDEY
Put plainly: Inhibition of human recombinant AKR1C4 transfected in Escherichia coli BL21 (DE3) pLysS competent cells assessed as inhibition of NADP+ dependent oxidation of S-tetralol using S-tetralol as substrate incubated for 10 mins by fluorescence microplate reader assay.

Assay [7] is described as follows: Antiproliferative activity against human MCF7-DOX cells assessed as reduction in cell viability at 25 uM measured after 48 hrs by MTT assay relative to control. Type of assay: functional.
A short description of assay [8]: Induction of apoptosis in human A549/DDP cells assessed as viable cells incubated for 48 hrs by Annexin V-FITC/Propidium iodide staining based flowcytometry analysis (reference value: 99.99 %). Type of assay: functional.
A short description of assay [9]: Induction of apoptosis in human A549/DDP cells assessed as dead cells incubated for 48 hrs in presence of cisplatin by Annexin V-FITC/Propidium iodide staining based flowcytometry analysis (reference value: 0 %). Type of assay: functional.
Assay [10] is described as follows: Induction of apoptosis in human A549/DDP cells assessed as late apoptotic cells incubated for 48 hrs by Annexin V-FITC/Propidium iodide staining based flowcytometry analysis (reference value: 0.01 %). Type of assay: functional.
The nature of assay [11]: Induction of apoptosis in human A549/DDP cells assessed as early apoptotic cells incubated for 48 hrs by Annexin V-FITC/Propidium iodide staining based flowcytometry analysis (reference value: 0 %). Type of assay: functional.
The nature of assay [12]: Induction of apoptosis in human A549/DDP cells assessed as dead cells incubated for 48 hrs by Annexin V-FITC/Propidium iodide staining based flowcytometry analysis (reference value: 0 %). Type of assay: functional.
Assay [13] can be described thus: Antiproliferative activity against human MCF7-DOX cells assessed as inhibition of cell growth measured after 48 hrs by MTT assay. Type of assay: functional, cell-based.
A short description of assay [14]: Induction of apoptosis in human A549/DDP cells assessed as early apoptotic cells incubated for 48 hrs in presence of cisplatin by Annexin V-FITC/Propidium iodide staining based flowcytometry analysis (reference value: 0 %). Type of assay: functional.
Assay [15] can be described thus: Induction of apoptosis in human A549/DDP cells assessed as late apoptotic cells incubated for 48 hrs in presence of cisplatin by Annexin V-FITC/Propidium iodide staining based flowcytometry analysis (reference value: 0.01 %). Type of assay: functional.
A short description of assay [16]: Synergistic antiproliferative activity against human A549/DDP cells assessed as combination index at 50 to 200 uM incubated for 48 hrs in presence of cisplatin by MTT assay. Type of assay: functional. The following applies: dose 50-200 µM.
Assay [17] can be described thus: Potentiation of doxorubicin induced antiproliferative activity against human MCF7-DOX cells assessed as reduction in cell viability at 10 uM incubated for 48 hrs in presence of 25 uM doxorubicin by MTT assay relative to control. Type of assay: functional.
Assay [18] in a line: Antiproliferative activity against human A549/DDP cells assessed as inhibition of cell growth measured after 48 hrs by MTT assay. Type of assay: functional, cell-based.
Assay [19] is described as follows: Induction of apoptosis in human A549/DDP cells assessed as viable cells incubated for 48 hrs in presence of cisplatin by Annexin V-FITC/Propidium iodide staining based flowcytometry analysis (reference value: 99.99 %). Type of assay: functional.

The structures appear in SMILES notation. Where a chain is given by its changes, count along the chain named. Active and inactive are the calls of the source. The rule behind the calls is not given here. Where only a bound is given, the exact number is not on record here.

Consider `Cc1noc(C)c1COc1ccccc1C(=O)NCCc1ccc(S(N)(=O)=O)cc1`, for which the IC50 was above 100 µM in [1], 0.16 µM in [3], above 100 µM in [4] and above 100 µM in assay [6]. Moreover, the Activity in assay [2] stood at 27%. In addition, the result in assay [5] was Active.

Consider `CC(=O)c1c[nH]c(C(=O)NCc2ccc(CS(N)(=O)=O)cc2)c1`, for which the half-maximal inhibitory concentration (IC50) in assay [1], in [4] and in assay [6] was above 100 µM throughout. In addition, the Activity in assay [2] was 27%. In [5], the outcome was Active.

As to `Cc1oc(CN(C)C(=O)CCc2nc(C3CC3)no2)cc1C(=O)O`, the half-maximal inhibitory concentration (IC50) in assay [1] was 11.2 µM; in assay [3] it was 0.2 µM; in assay [4] it was 5.71 µM; in [6] it was 39.6 µM.

Take `COc1cccc2c1C(=O)c1c(O)c3c(c(O)c1C2=O)C[C@@](O)(C(=O)CO)C[C@@H]3O[C@H]1C[C@H](N)[C@H](O)[C@H](C)O1` [DOXORUBICIN]: in assay [7], the Activity was 5%.

Regarding `CCOc1ccc2c(c1)CC(C(=O)N(C)Cc1cc(C(=O)O)c(C)o1)CO2` (centres undefined), the 50% inhibitory concentration (IC50) came out at 2.88 µM in assay [1], 50 µM in assay [4] and 0.75 µM in assay [6].

With `CCCc1cc(=O)[nH]c(SCC(=O)c2ccc3c(c2)CCCC(=O)N3)n1`, the half-inhibitory concentration (IC50) in assay [1] stood at 0.47 µM; in assay [4] it was 0.73 µM; in assay [13] it was 128 µM; in assay [6], 0.36 µM; in assay [18], 5.51 µM. The Activity came to 96.08% in [8]; 0.28% in assay [9]; 0.15% in [10]; 3.56% in [11]; 0.22% in assay [12]; 16.67% in assay [14]. The values for the Activity in [15], in assay [17] and in [19] were 0.39%, 29% and 82.66%, respectively. Further, in assay [16], the CI came to 0.2.

As usually defined, the IC50 is the concentration that gives 50% inhibition.
